The series is classed as physicochemical. Here is the method: The solubility of Deca in bromine was determined as 2.64 g Deca in 100 g bromine at 20° C.

Consider `Brc1c(Br)c(Br)c(Oc2c(Br)c(Br)c(Br)c(Br)c2Br)c(Br)c1Br` [Deca, decabromodiphenyl ether], for which the “solubility of Deca in bromine” value was found to be 2.64 g Deca in 100 g bromine.
